In paper PMC5557808 (Nature Communications, 2017):
Values joined by “and” are separate entries in the source; they are usually repeats but may differ in a detail not shown here. Equal entries are not always repeated. Where a SMILES comes first, the peptide text is derived from it. [ ]: non-standard residue; d: D form. The star is where a group is joined. X1 = CC[N+](CC)(CC(=O)Nc1c(C)cccc1C)Cc1cccc(C(=O)*)c1; Aha = [N-]=[N+]=NCC[C@H](N)C(=O)O

Test: Cleavage of PCL denatonium conjugate in collected saliva
Type: in vitro ADME, human
Conditions: agitation, mean ± s.d.
Excerpt: Volunteers were enrolled for a cross-sectional study. One group had peri-implant disease (defined as peri-implantitis or mucositis), the other group were healthy volunteers (asymptomatic patients with at least one dental implant). Unstimulated saliva was collected using an absorbent device. Sulcus fluid was collected from the peri-implant zone using standardized, commercially available MMP-8 collection strips and sent to Dentognostics GmbH (Jena, Germany) for analysis (referred to as chair-side test). Determination of total MMP activity in saliva samples was conducted using the human MMP-8 activity assay (QuickZyme, Leiden, the Netherlands) according to the manufacturer’s instructions. Saliva samples from the cross-sectional study were incubated with D-CLAN3Q (ID #1c) in MMP-8 buffer and cleavage was analyzed by HPLC. Further details are given in the Supplementary Methods.
For the collection of sulcus fluid and saliva from peri-implant d iseased p atien ts and fro m health y volunteers, a cross-section al stud y was initiated with the patient group having either a mucositis or a per i-implantitis vs. health y control. […] In this comparative study, the ability of the sensor diagnostic was assessed to discriminate saliva collected fro m p atien ts with peri -imp lan t disease to as ymp to matic carriers of at least on e i mplant (referred to as healthy control). […]

Structure (SMILES): CC[C@H](C)[C@H](NC(=O)CNC(=O)[C@H](CCC(N)=O)NC(=O)[C@@H]1CCCN1C(=O)CNC(=O)c1cccc(C[N+](CC)(CC)CC(=O)Nc2c(C)cccc2C)c1)C(=O)N[C@@H](C)C(=O)NCC(=O)N[C@@H](CCC(N)=O)C(=O)N[C@@H](CCN=[N+]=[N-])C(=O)N[C@@H](CCC(N)=O)C(=O)O [ID #1c] (X1-GPQGIAGQ[Aha]Q-OH)
- Cleavage in saliva, healthy subjects, 5-10 min (saliva of healthy volunteers (n = 14) 1:1 with 0.1 mg/mL peptide in MMP buffer pH 6.8-7.0, 37 °C, HPLC decrease of main peak): 1.5 ± 0.8%
- Cleavage in saliva, diseased subjects, 5-10 min (saliva of patients with peri-implant disease (n = 19) 1:1 with 0.1 mg/mL peptide in MMP buffer pH 6.8-7.0, 37 °C, HPLC): 4.2 ± 3.34% and < 5%
